System: cultured hair follicles
Experiment: Radioactive cysteine incorporation in cultured hair follicles as a measure of hair growth
Type: cell-based, mice
Protocol: In this system, follicles were dissected from 4 day old mice. Healthy follicles were selected visually and cultured in serum free media supplemented with insulin, transferrin and selenium. The activity of compositions comprising one or more of the test compounds in stimulating hair growth was measured by radioactive cysteine labeling of the newly formed hair proteins and expressed as a percentage of the activity of a control (i.e., no test compounds present).

Glycyl-L-Histidyl-L-Lysyl-L-Valyl-L-Phenylalanyl-L-Valine: Copper Complex
radioactive cysteine incorporation relative to control (result in words) (at the concentrations used (Minoxidil 1 mM, peptide copper complex 10 μM)): stimulated radioactive cysteine incorporation above that of the control
% of Cysteine Incorporation of Control (no addition) (peptide copper complex 10 μM, follicles from 4 day old mice, serum free media): 113%

Reference: US20040142853A1, “Stimulation of hair growth by compositions containing peptide copper complexes and minoxidil” (priority 2002, published 2004)
